The text below walks through data of patent US9163018B2, “Method of treatment of age-related macular degeneration (AMD)” (Prana Biotechnology Limited, priority 2006, dated 2015).

The test relates to Abeta in extract of post-mortem human AD brain tissue. Nature of the test: BAS: human brain amyloid solubilization assay. Format: biochemical. As to conditions: max effect across the concentration range, referenced to baseline PBS. The essentials: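 Plaque-bearing post-mortem AD cortex homogenised in ice-cold PBS pH 7.4; soluble Aβ in 100,000×g supernatant, insoluble Aβ from resuspended pellet. Fractions run on Tris-Tricine SDS-PAGE, immunoblotted with W02, densitometry against synthetic Aβ40 standards.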

For `CN(C)Cc1ccc2c(Cl)cc(Cl)c(O)c2n1.Cl` [PB 1033], the BAS max effect came to 470%.
